Reference: ChEMBL document CHEMBL1201862, “PubChem BioAssay data set” (2004)
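Following 48 hours of exposure in 96-well plates, responses at five concentrations were used to interpolate endpoints linearly. Here, GI50 denotes the concentration required for 50% inhibition of growth.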 The source made the active and inactive calls. Rule as the data show it: active = GI50 up to about 1.1 µM and inactive = higher. Positions of bridges follow the written chain, without caps; N, C: chain ends. Non-standard residues stand in square brackets, D forms with d. Residues, ends and D or L forms follow the SMILES beside them. *: point of attachment. Cbz = O=C(OCc1ccccc1)*; Aib = CC(C)(N)C(=O)O; OBn = c1ccc(CO*)cc1; βAla = NCCC(=O)O

Legend:
Test in all cases: DTP human tumour cell line panel, 48 h
OVCAR-3 = test system: OVCAR-3
K562 = test system: K562
HCT-116 = test system: HCT-116
HT-29 = test system: HT-29
Malme-3M = test system: Malme-3M
PC-3 = test system: PC-3
MDA-MB-435 = test system: MDA-MB-435
SK-MEL-5 = test system: SK-MEL-5
NCI-H522 = test system: NCI-H522
SW-620 = test system: SW-620
NCI/ADR-RES = test system: NCI/ADR-RES
DU-145 = test system: DU-145
SK-MEL-2 = test system: SK-MEL-2
HCT-15 = test system: HCT-15
NCI-H23 = test system: NCI-H23
EKVX = test system: EKVX
NCI-H226 = test system: NCI-H226
SF-268 = test system: SF-268
HCC 2998 = test system: HCC 2998
SK-MEL-28 = test system: SK-MEL-28

Measured: GI50

CCOC(=O)CCC(C(=O)OCC)n1nnc2cc(Nc3c(C)[n+]([O-])c4ccc(Cl)cc4[n+]3[O-])ccc21 (configuration not stated)
inactive: OVCAR-3 40.4 µM | K562 69.3 µM | HCT-116 69.5 µM | HT-29 67.8 µM | Malme-3M > 100 µM | PC-3 > 100 µM | MDA-MB-435 > 100 µM | SK-MEL-5 73.8 µM | NCI-H522 > 100 µM | SW-620 > 100 µM | NCI/ADR-RES 47.1 µM | DU-145 > 100 µM | SK-MEL-2 99.1 µM | NCI-H23 92 µM | EKVX 23.2 µM | NCI-H226 26.9 µM | SF-268 34.8 µM
53.7 µM: HCT-15

NC1=NCC(CN2CCCC2)O1 (configuration not stated)
inactive: OVCAR-3 > 100 µM | K562 > 100 µM | HCT-116 > 100 µM | HCC 2998 > 100 µM | HT-29 > 100 µM | Malme-3M > 100 µM | PC-3 > 100 µM | MDA-MB-435 > 100 µM | SK-MEL-5 > 100 µM | NCI-H522 > 100 µM | SW-620 > 100 µM | NCI/ADR-RES > 100 µM | DU-145 > 100 µM | SK-MEL-2 > 100 µM | NCI-H23 > 100 µM | EKVX > 100 µM | SK-MEL-28 > 100 µM | SF-268 > 100 µM
> 100 µM: HCT-15

CC1(C)NC(=O)C(NC(=O)C(CC(=O)OCc2ccccc2)NC(=O)OCc2ccccc2)CCCCNC(=O)CCNC1=O (configuration not stated) (Cbz-D(OBn)K[Aib][βAla]; lactam 2-C; configuration not given here)
inactive: OVCAR-3 > 100 µM | K562 > 100 µM | HCT-116 > 100 µM | HCC 2998 > 100 µM | HT-29 > 100 µM | Malme-3M > 100 µM | PC-3 > 100 µM | MDA-MB-435 > 100 µM | SK-MEL-5 > 100 µM | NCI-H522 > 100 µM | SW-620 > 100 µM | NCI/ADR-RES > 100 µM | DU-145 > 100 µM | NCI-H23 > 100 µM | EKVX > 100 µM | NCI-H226 > 100 µM | SK-MEL-28 > 100 µM | SF-268 > 100 µM
> 100 µM: HCT-15

C=C(Nc1nc2ccc(C)cc2s1)C(=O)C(CC)C(=O)C(CC)CC1C(=O)NC(=O)NC1=O (configuration not stated)
> 100 µM: HCT-15
inactive: OVCAR-3 > 100 µM | HCT-116 > 100 µM | HCC 2998 > 100 µM | PC-3 > 100 µM | MDA-MB-435 > 100 µM | SK-MEL-5 > 100 µM | NCI-H522 > 100 µM | SW-620 > 100 µM | NCI/ADR-RES > 100 µM | DU-145 > 100 µM | SK-MEL-2 > 100 µM | NCI-H23 > 100 µM | EKVX > 100 µM | NCI-H226 > 100 µM | SK-MEL-28 > 100 µM | SF-268 > 100 µM

O=C(/C(=N\Nc1ccc([N+](=O)[O-])cc1[N+](=O)[O-])NC12CC3CC(CC(C3)C1)C2)C(Br)C(=O)c1ccccc1 (configuration not stated)
active: SK-MEL-5 1.08 µM | SW-620 0.766 µM
inactive: OVCAR-3 2.54 µM | K562 2.8 µM | HCT-116 3.05 µM | HCC 2998 3.98 µM | HT-29 4.45 µM | Malme-3M 3.13 µM | PC-3 2.61 µM | MDA-MB-435 3.52 µM | NCI/ADR-RES 3.23 µM | DU-145 4.48 µM | SK-MEL-2 2.12 µM | NCI-H23 3.33 µM | EKVX 3.56 µM | NCI-H226 2.52 µM | SK-MEL-28 9.31 µM | SF-268 5.05 µM
4.99 µM: HCT-15
